Assay results as given in patent US6310247A, “7-aryl-6(Z)-heptatrienoic acid retinamides” (Hoffmann-LA Roche Inc., priority 1999, dated 2001).

Experiments:
[1] = system: NMU-induced mammary tumors; assay: NMU-induced mammary tumors in Sprague-Dawley rats; format: in vivo, rat; settings: for Effect on tumors (in words): i.p., tumor size and number; for Number of first tumors with volume relative to day 0: progressed > 100% / Number of first tumors with volume relative to day 0: regressed > 50% / Number of first tumors with volume relative to day 0: static / Number of first tumors: total: 25 mg/kg i.p. q.d.; for No. of first tumors regressing to unpalpable/no. palpable at day 0: 25 mg/kg i.p., 5×/wk for 4 weeks
Description: Thus, compounds of formula 1 have efficacy against established nitrosomethylurea (NMU)-induced mammary tumors in rats. The induction of invasive mammary-tissue specific tumors in rats by NMU (Gullino et al., 1975) produces primarily estrogen-dependent carcinomas (Arafah et al., 1980) within as little as 4 weeks following a single, low-toxicity dose (McCormick et al., 1981) and results in a high percentage of tumor induction. The properties of the tumors induced in rats by NMU in this experimental model are representative of human mammary carcinoma and are invasive (McCormick et al., 1981).
Materials and Methods, 750 virgin female Sprague-Dawley rats 26 to 32 days of age (Harlan Laboratories) were housed in polycarbonate cages (3 rats/cage) and provided food and water ad libitum. Mammary tumors were induced essentially as previously described (Gullino et al., 1975 and McCormick et al., 1981). At the age of 50+/-3 days, each animal received a single dose (50 mg/kg body weight) of NMU (Sigma, St. Louis, Mo.) in 0.85% sodium chloride acidified to pH 5.0 with acetic acid. The carcinogen was administered with a 26 g needle i.v. via the tail vein in a 0.5 ml volume.
Rats were checked weekly starting 4 weeks after NMU administration for palpable tumors and those bearing at least one mammary tumor, palpable for 11 days or less, were entered into study on day 61 post-NMU administration. Fifteen animals were entered into treatment or control groups. Tumor diameters were measured weekly with calipers along their long and short axes and tumor volume was calculated from the ellipsoid formula, (D×d^2)/2, where D is the long diameter and d is the short diameter. The days on which new palpable tumors arose or on which established tumors disappeared were noted along with anatomical position. Tumors which appeared in the same anatomical location at which a tumor had previously completely regressed were considered to be regrowths of the same tumor. Rats which developed ulcerations of tumors were immediately terminated from studies. All animals entered into groups were weighed daily on weekdays for 6 weeks.
N-(4-hydroxyphenyl)-(2E,4E,6Z)-7-[3,5-bis(trifluoromethyl)phenyl]-3,7-dimethyl-2,4,6-heptatrienamide was prepared in 4% ethanol, 8% PEG400, 7.2% Cremophor RH40 and 80% D5W and administered intraperitoneally in a 2.8 ml volume via a 21 g needle 5 times per week, q.d., for 4 weeks.
For treatment of NMU-induced tumors in rats, solutions of the test compound N-(4-hydroxyphenyl)-(2E,4E,6Z)-7-[3,5-bis(trifluoromethyl)phenyl]-3,7-dimethyl-2,4,6-heptatrienamide were prepared daily in 4% ethanol, 8% PEG400, 7.2% Cremophor RH40 and 80% D5W.

[2] = system: ER+ and ER- breast carcinoma cells; assay: Induction of apoptosis in ER+ and ER- carcinoma cells (statements in words); format: cell-based, human; settings: 24-48 h
Procedure: 2. Apoptosis: Cell death detection by ELISA:
Compounds of formula 1 were tested for the ability to cause apoptosis as follows:
Cells and media were collected, cells were pelleted, resuspended in 100 μl lysis buffer (50 mM Tris-Cl (pH=8.0), 20 mM EDTA, 1% NP-40e) and incubated 30 minutes at 4° C. to lyse. Cell debris was spun down and an aliquot (30 μl) of the […] was removed for protein determination and stored at -20° C. An additional 280 μl of lysis buffer, was added, mixed thoroughly and spun down at 14,000 RPM for 10 minutes at 4° C. An aliquot was removed (180 μl) and the sample was stored at -20° C. until testing.
A commercially available apoptosis detection kit, obtained from Boehringer Mannheim (Cat. No. 1544-674), was used as per the directions provided with the kit (Cell Death Detection ELISA). […] The assay measures apoptosis by quantifying the amount of nucleosomal fragmentation from the extracts of cells treated with the test compounds (samples). […] The resulting colorimetric change is measured spectrophotometrically at 405/490nm.
The total protein content of each sample was determined for the purpose of normalizing the ELISA values to amount of sample loaded. […] The protein concentrations were calculated based upon a linear regression curve. […]
Relative ELISA O.D. readings are determined by subtracting the ELISA plate background O.D. value. […] A correction coefficient (CC), based on the sample protein concentration compared to no drug control, was determined to correct the sample O.D. following subtraction of the background O.D. (BCS O.D.). The fold increase over no drug control is calculated and normalized to the total protein concentration of the samples by multiplying against the correction coefficient. […]
To determine the total protein concentration of the samples, obtain the total protein concentration in mg/ul calculated using standard linear regression formula (y=mx+b) based on BSA standards. […] Protein concentration (PC)(mg/ml)=(sample absorbance-b)/x. […]

Q: How did the “Rats treated that succumbed to toxicity” value ([1]; 25 mg/kg/2.8 ml i.p. q.d., 5×/wk for 4 wks) turn out when `C/C(=C/C=C/C(C)=C/C(=O)Nc1ccc(O)cc1)c1cc(C(F)(F)F)cc(C(F)(F)F)c1` [N-(4-hydroxyphenyl)-(2E,4E,6Z)-7-[3,5-bis(trifluoromethyl)phenyl]-3,7-dimethyl-2,4,6-heptatrienamide] was run?
A: 3 of 15

Q: What about the “Effect on tumors (in words)” value [1] of the same compound?
A: decrease both tumor size and tumor number

Q: What about the “Effect on tumors (in words)” value ([1]; listed as the tested compound) of the same compound?
A: capable of causing existing tumors to shrink, and, in addition, causes the number of tumors to decrease by eliminating first tumors and preventing additional tumors from arising

Q: And the “Number of first tumors with volume relative to day 0: progressed > 100%” value ([1]; week 1, 5×/wk for 4 wks)?
A: 4

Q: What about the “Number of first tumors with volume relative to day 0: regressed > 50%” value ([1]; week 1, 5×/wk for 4 wks) of the same compound?
A: 10

Q: And the “Number of first tumors with volume relative to day 0: static” value ([1]; week 1, 5×/wk for 4 wks)?
A: 5

Q: And the “Number of first tumors: total” value ([1]; week 1, 5×/wk for 4 wks)?
A: 19

Q: What about the “No. of first tumors regressing to unpalpable/no. palpable at day 0” value (“No. of first tumors regressing” for short) ([1]; week 1, ** p < 0.005 vs vehicle) of the same compound?
A: 7/20

Q: What about the “Number of first tumors with volume relative to day 0: progressed > 100%” value ([1]; week 2, 5×/wk for 4 wks) of the same compound?
A: 6

Q: And the “Number of first tumors with volume relative to day 0: regressed > 50%” value ([1]; week 2, 5×/wk for 4 wks)?
A: 8

Q: And the “Number of first tumors with volume relative to day 0: static” value ([1]; week 2, 5×/wk for 4 wks)?
A: 5

Q: And the “Number of first tumors: total” value ([1]; week 2, 5×/wk for 4 wks)?
A: 19

Q: What about the “No. of first tumors regressing” value ([1]; week 2, * p < 0.05 vs vehicle) of the same compound?
A: 5/19

Q: What about the “Number of first tumors with volume relative to day 0: progressed > 100%” value ([1]; week 3, 5×/wk for 4 wks) of the same compound?
A: 6

Q: And the “Number of first tumors with volume relative to day 0: regressed > 50%” value ([1]; week 3, 5×/wk for 4 wks)?
A: 6

Q: What about the “Number of first tumors with volume relative to day 0: static” value ([1]; week 3, 5×/wk for 4 wks) of the same compound?
A: 3

Q: What about the “Number of first tumors: total” value ([1]; week 3, 5×/wk for 4 wks) of the same compound?
A: 19

Q: What about the “No. of first tumors regressing” value ([1]; week 3) of the same compound?
A: 3/19

Q: What about the “No. of first tumors regressing” value ([1]; week 4, * p < 0.05 vs vehicle) of the same compound?
A: 4/19

Q: What about the “No. of first tumors regressing” value ([1]; week 5) of the same compound?
A: 4/18

Q: What about the “No. of first tumors regressing” value ([1]; week 6, * p < 0.05 vs vehicle) of the same compound?
A: 5/18

Q: And the “Induction of apoptosis (in words)” value [2]?
A: significant induction of apoptosis
